Experimental data: US8946260B2, “17α-hydroxylase/C17,20-lyase inhibitors” (Novartis AG, priority 2010, dated 2015)

Biological target: T1, recombinant Human CYP17 enzyme (17-20 lyase) (Homo sapiens, UniProt P05093)
T1 construct: made in house; host or cells: A549 cells, adenoviral expression system; purified cell membrane preparations
T1 sequence (P05093 1-508): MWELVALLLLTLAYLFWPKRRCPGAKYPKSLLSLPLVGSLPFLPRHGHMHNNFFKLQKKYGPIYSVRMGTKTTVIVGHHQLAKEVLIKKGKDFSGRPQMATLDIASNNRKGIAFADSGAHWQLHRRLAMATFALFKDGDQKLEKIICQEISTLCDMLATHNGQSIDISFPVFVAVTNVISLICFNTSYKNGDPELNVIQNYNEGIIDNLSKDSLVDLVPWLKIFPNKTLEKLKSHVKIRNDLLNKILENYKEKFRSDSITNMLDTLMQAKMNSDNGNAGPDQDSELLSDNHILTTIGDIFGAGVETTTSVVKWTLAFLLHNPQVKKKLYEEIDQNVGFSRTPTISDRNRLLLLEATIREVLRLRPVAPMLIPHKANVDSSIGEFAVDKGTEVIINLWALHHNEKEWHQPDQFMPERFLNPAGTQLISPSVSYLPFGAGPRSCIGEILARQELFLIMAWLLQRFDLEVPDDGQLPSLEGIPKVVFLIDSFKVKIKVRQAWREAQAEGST
Assay: Cytochrome P450, 17-20 lyase (CYP17-lyase) assay, 17-α-hydroxy pregnenolone [21-3H] as substrate
Type: biochemical
Conditions: at 10 μM; read-out: hCYP17 Lyase % Inh
Text: 1) Cytochrome P450, 17-20 Lyase (CYP17-Lyase) Assay Development Using Recombinant Human CYP17 Enzyme and 17-α-Hydroxy Pregnenolone [21-3H] as the Substrate.
Cytochrome P450, 17-α-Hydroxylase, 17-20 lyase (CYP17) is a multi functional enzyme that plays a key role in the biosynthesis of steroid hormones. It catalyses both conventional hydroxylation and also the carbon-carbon bond cleavage reactions (Peter Lee-Robichaud et al, Biochem. J, (1997) 321, 857-63). In the hydroxylation reaction, it converts progesterone and pregnenolone to the corresponding hydroxylated products 17-α-hydroxy progesterone and 17-α-hydroxy pregnenolone. In the lyase reaction, it catalyzes the conversion of these hydroxylated substrates to Androstenedione and Dehydroepiandrosterone (DHEA) respectively. In the Cyp17 lyase assay described here, the conversion of 17-α-hydroxy pregnenolone to Dehydroepiandrosterone and acetic acid is being monitored.
Assay method was adopted from a published protocol with some modifications to suit our requirements (Dmitry N Grigoryev et al, Analytical Biochemistry, (1999) 267, 319-330). The conversion of 17-α-hydroxy pregnenolone to Dehydroepiandrosterone is accompanied by the release of acetic acid. In the Cyp17 lyase assay, 17-α-hydroxy pregnenolone labeled with tritium (3H) at position 21 is used as the substrate. Chloroform extraction removes the radioactive steroids and acetic acid is taken into aqueous layer. The tritiated acetic acid released in the assay thus extracted is quantified to determine the enzyme activity.
Initial buffer conditions were, 50 mM Phosphate buffer, pH 7.5 was used as the starting buffer for Cyp17 lyase activity based on the data published in US patent publication No. US2004/0198773 A1. […] Human Cyp 17 gene was cloned and expressed in Adenoviral expression system in A549 cell lines. The purified cell membrane preparations were used as the source for Human CYP17 enzyme. Total protein concentration: 8 mg/mL.
For routine screening, the assay was set up with 16 μg of enzyme in 50 μL reaction volume. 17α-hydroxy pregnenolone [21-3H] was added to a final concentration of 0.25 μM. NADPH is used at a final concentration of 4.2 mM. Total reaction volume was made up to 50 μL with 50 mM Phosphate buffer pH 7.5. The reaction mixture was incubated at room temperature for 90 minutes with gentle shaking. The reaction was stopped by the addition of 100 μL of buffer. 500 μL of 5% freshly prepared activated charcoal was added to the solution and mixed well by vortexing. The samples were centrifuged at 17568×g for 5 minutes. (14000 rpm). The supernatant was carefully transferred to fresh tube and 1.3 mL of scintillation fluid was added, mixed by vortexing.
The radioactivity was measured in a 1450 MicroBeta TriLux™ scintillation counter from Wallac-Perkin Elmer®, USA. The measurements were carried out in 2.0 mL Eppendorf™ tubes. Each tube was counted for 1 minute. The amount of tritiated acetic acid released is proportional to the lyase activity. Percent lyase activity in presence of inhibitor was calculated using the formula given below.
[formula] • Sample: Enzyme reaction in presence of inhibitor. • Positive control: Enzyme reaction without inhibitor but containing DMSO at 1% final concentration. • Blank—Contains all reagents except enzyme. • % Inhibition=100%−% Lyase activity
For IC50 determination, the % inhibition was plotted as a function of inhibitor concentration. The data was fitted to sigmoidal equation using Graphpad Prism® software IV to generate IC50 values.

Compared with Cc1ccncc1N1CCc2ccc(Nc3ccccc3)cc2C1=O [Example 30A, 2-(4-methylpyridin-3-yl)-7-(phenylamino)-3,4-dihydroisoquinolin-1(2H)-one], Cc1ccncc1N1CCc2cc(Cl)c(Cl)cc2C1=O [Example 41A, 6,7-dichloro-2-(4-methylpyridin-3-yl)-3,4-dihydroisoquinolin-1 (2H)-one] is lower in inhibition at 10 µM: 41% for the first, 10% for the second.

Compound Cc1ccncc1N1CCc2ccsc2C1=O [Example 5A, 6-(4-Methyl-pyridin-3-yl)-5,6-dihydro-4H-thieno[2,3-c]pyridin-7-one] has an inhibition at 10 µM of 91%.

Same assay, conditions: human CYP17 lyase; substrate 0.25 μM; room temperature, 90 minutes; read-out: Lyase IC 50 nM Human

First: CC1Cc2ccc(C(F)(F)F)cc2C(=O)N1c1cnccc1C(F)(F)F (stereo not shown) [Example 70A, 3-methyl-7-(trifluoromethyl)-2-(4-(trifluoromethyl)pyridin-3-yl)-3,4-dihydroisoquinolin-1(2H)-one]
Second: O=C1c2cc(C(F)(F)F)ccc2CCN1c1cnccc1C(F)(F)F [Example 21A, 7-Trifluoromethyl-2-(4-trifluoromethyl-pyridin-3-yl)-3,4-dihydro-2H-isoquinolin-1-one]
The IC50 of the first is 13-fold higher: 744 nM for the first, 56 nM for the second. The second is the more potent here.

Going from COc1cccc2c1CCN(c1cnccc1C)C2=O [Example 13A, 5-Methoxy-2-(4-methyl-pyridin-3-yl)-3,4-dihydro-2H-isoquinolin-1-one] to Cc1ccncc1N1CCc2ccc(C#N)cc2C1=O [Example 32A, 2-(4-methylpyridin-3-yl)-1-oxo-1,2,3,4-tetrahydroisoquinoline-7-carbonitrile], the IC50 falls from 917 nM to 301 nM (3-fold). The second is the more potent here.

Compared with O=C1c2cc(I)c(F)cc2CCN1c1cnccc1C(F)(F)F [Example 79A, 6-fluoro-7-iodo-2-(4-(trifluoromethyl)pyridin-3-yl)-3,4-dihydroisoquinolin-1(2H)-one], O=C1c2c(ccc(C(F)(F)F)c2F)CCN1c1cnccc1C(F)(F)F [Example 77A, 8-fluoro-7-(trifluoromethyl)-2-(4-(trifluoromethyl)pyridin-3-yl)-3,4-dihydroisoquinolin-1(2H)-one] is 8.8-fold higher in IC50: 19 nM for the first, 167 nM for the second.

Compared with O=C1c2cc(C(F)(F)F)ccc2CCN1c1cncc(F)c1 [Example 18A, 2-(5-Fluoro-pyridin-3-yl)-7-trifluoromethyl-3,4-dihydro-2H-isoquinolin-1-one], O=C1c2ccc(C(F)(F)F)cc2CCN1c1cncc(F)c1 [Example 56A, 2-(5-fluoropyridin-3-yl)-6-(trifluoromethyl)-3,4-dihydroisoquinolin-(2H)-one] is 3.3-fold higher in IC50: 334 nM for the first, 1110 nM for the second. The first is the more potent here.

Going from Cc1ccncc1N1CCc2ccncc2C1=O [Example 65A, 2-(4-methylpyridin-3-yl)-3,4-dihydro-2,7-naphthyridin-1(2H)-one] to Cc1ccncc1N1CCc2cc(C(F)(F)F)ccc2C1=O [Example 17A, 2-(4-Methyl-pyridin-3-yl)-6-trifluoromethyl-3,4-dihydro-2H-Isoquinolin-1-one], the IC50 falls from 1140 nM to 95 nM (12-fold). The second is the more potent here.

Compared with Cc1ccncc1N1CCc2[nH]c3ccc(F)cc3c2C1=O [Example 60A, 8-fluoro-2-(4-methylpyridin-3-yl)-2,3,4,5-tetrahydro-1H-pyrido[4,3-b]indol-1-one], Cc1ccncc1N1CCc2ccc(-c3ccc(F)cc3)cc2C1=O [Example 3A, 7-(4-Fluoro-phenyl)-2-(4-methyl-pyridin-3-yl)-3,4-dihydro-2H-isoquinolin-1-one] is 130-fold higher in IC50: 9 nM for the first, 1210 nM for the second. The first is the more potent here.

First: O=C1c2cc(C(F)(F)F)ccc2CCN1c1cccnc1 [Example 16A, 2-Pyridin-3-yl-7-trifluoromethyl-3,4-dihydro-2H-isoquinolin-1-one]
Second: O=C1c2cc(C(F)(F)F)ccc2CCN1c1cncc2ccccc12 [Example 19A, 7-Trifluoromethyl-3,4-dihydro-[2,4′]biisoquinolinyl-1-one]
The IC50 of the first is 4-fold higher: 175 nM for the first, 44 nM for the second.

First: Cc1ccncc1N1CCc2ccc3ccccc3c2C1=O [Example 10A, 2-(4-Methyl-pyridin-3-yl)-3,4-dihydro-2H-benzo[h]isoquinolin-1-one]
Second: CCn1c2c(c3ccccc31)CCN(c1cnccc1C)C2=O [Example 38A, 9-ethyl-2-(4-methylpyridin-3-yl)-2,3,4,9-tetrahydro-1H-pyrido[3,4-b]indol-1-one]
The IC50 of the first is 6.6-fold lower: 3.5 nM for the first, 23 nM for the second.
